Experimental data taken from US5016655A, “Cigarette manufacturing process” (priority 1989, dated 1991).
Like-named read-outs stand apart in the source and are kept apart here.

Legend:
[1] = system: localization of radioactivity ([14C]NNN) in bronchial epithelium; assay: effect of substances on localization of radioactivity one hour after intravenous [14C]NNN (Table VI); assay type: in vivo, mice
From the text: Table VI below lists the compounds tested for their effect on the localization of radioactivity in bronchial epithelium one hour after intravenous administration of [^14 C]NNN. Unless indicated otherwise, the compounds were parenterally administered acutely at various times prior to [^14 C]NNN. In many cases only one mouse was studied for each compound. […].
Effect of substances on the localization of radioactivity in bronchial epithelium of mice one hour after intravenously receiving [^14 C] nitrosonornicotine.
For all the remaining compounds the general protocol was to administer the potential blocker some minutes prior to administration of the [^14 C]NNN. Potential blockers were given orally, intraperitoneally or by inhalation, and the [^14 C]NNN was given intravenously.

[2] = cited from earlier work; for Boiling Point: Table V
human = details: Table V; cited from earlier work
[3] = system: localization of nitrosamines (NNN, NNK) in tissues; assay: nitrosamine delocalization / blocking, general statements; details: in vivo
[4] = system: nitrosamine formation on epithelial membranes; tumor development; details: cited from earlier work
rats = details: cited from earlier work
[5] = system: localization of radioactivity of [14C]NNN in bronchial epithelium; assay: alcohols by inhalation, localization of radioactivity of [14C]NNN (Table VII); assay type: in vivo, mice; details: for potency as inhibitor in mice: mouse, in vivo
Method: Additional alcohols were tested for their effects on the localization of radioactivity of [^14 C]NNN in bronchial epithelium when the alcohols were administered by inhalation. For these studies, two ml of the alcohol were placed in the bottom of a 600 ml glass beaker. A wire mesh platform was constructed so that the mouse was positioned approximately three-quarter to one inch above the alcohol. The beaker was kept tightly sealed unless otherwise indicated. All mice were fasted overnight, except where noted, and sacrificed one hour after intravenous [^14 C]NNN administration. These mice were also processed for whole-body autoradiography. Although the protocols varied slightly as summarized below, these minor differences should not effect the results.
A. Exposures in beakers maintained at 50° C. (plus or minus
B. Exposure in beakers at room temperature. Beakers were
C. Beakers equilibrated with alcohols at least 20 min in […]

[6] = system: localization of radioactivity ([14C]NNN) in bronchial epithelium; assay: orally administered alcohols, localization of radioactivity after intravenous [14C]NNN; assay type: in vivo, mice; details: gavage 1.0 g/kg, 20 min before iv [14C]NNN
Method: For each of these alcohols, the mouse was fasted overnight, the alcohol in aqueous solution at a dose of 1.0 g/kg was administered by gavage and after twenty minutes the [^14 C]NNN was injected intravenously. All mice were sacrificed one hour after the [^14 C]NNN treatment and processed for whole-body autoradiography,as described previously.

NCCCCN [putrescine]
response on the uptake of radioactivity in the bronchial epithelium ([1]; solids at ambient temperature): minimal response

CC(C)(O)C(C)(C)O [Pinacol]
Boiling Point [2]: 174 °C | Toxicity (human): Low-toxicity

CC(C)[C@@H]1CC[C@@H](C)C[C@H]1O [1-menthol]
response on the uptake of radioactivity in the bronchial epithelium ([1]; solids at ambient temperature): minimal response

C[S+](C)[O-] [DMSO, dimethylsulfoxide]
nitrosamine delocalization / inhibition of nitrosamine localization [3]: found to delocalize nitrosamines | decrease of radioactivity in bronchial epithelium, oral vs ip ([1]; given orally): less decrease

C#CCN(C)Cc1ccccc1 [parqyline]
response on the uptake of radioactivity in the bronchial epithelium ([1]; solids at ambient temperature): minimal response

Vitamin A
effect on tumor development [4]: inhibit tumor development

CC(C)O [isopropyl alcohol, isopropanol]
Acute Oral LD50 (rats; rats, oral): 5.84 q/kg

diaminopropane HCl
response on the uptake of radioactivity in the bronchial epithelium ([1]; solids at ambient temperature): minimal response

CC1=C(/C=C/C(C)=C/C=C/C(C)=C/C(=O)O)C(C)(C)CCC1 [retinoic acid]
response on the uptake of radioactivity in the bronchial epithelium ([1]; solids at ambient temperature): minimal response

Dipropylene glycol monomethyl
Boiling Point [2]: 189 °C

O=Cc1ccc2c(c1)OCO2 [piperonal]
decrease in the localization of radioactivity in bronchial epithelium ([1]; one hour after intravenous [14C]NNN, solids at ambient temperature): significant decrease

CCCCCCCCO [n-Octyl alcohol]
Boiling Point [2]: 86 °C | Toxicity (human): Flavor agent

[Cl-].[Na+] [sodium chloride, reference compound]
LD50 (rats; rats, oral, comparison): about 3.75 g/Kg

CCCCCCCCCCCCO [Lauryl alcohol]
Boiling Point [2]: 255 °C | Toxicity (human): Low-toxicity

CCCCCCC(C)O (stereo not drawn) [2-octanol]
boiling points [2]: 180 ° | effectiveness against NNN or NNK [3]: against NNK | potency as inhibitor in mice [5]: among the most potent inhibitors

vitamin E
effect on formation of nitrosamines on epithelial membranes [4]: prevent the formation of nitrosamines

CCCCCCCCCCO [n-Decyl alcohol]
Boiling Point [2]: 210 °C | Toxicity (human): Low-toxicity

CC(C)CCO [isoamyl alcohol]
decrease in the localization of radioactivity in bronchial epithelium [6]: significant decrease | Acute Oral LD50 (rats; rats, oral): 1.30 q/kg

[Se] [Selenium]
effect on tumor development [4]: inhibit tumor development

CCC(CC)CO [2-Ethyl butyl alcohol]
Boiling Point [2]: 149 °C | Toxicity (human): Low-toxicity

CCCCCCCCCO [n-Nonyl alcohol]
Toxicity (human): Low-toxicity

Methyl cyclohexanol
Boiling Point [2]: 173 °C

CCCCC(CC)CO (stereo not drawn) [2-ethyl hexanol]
Acute Oral LD50 (rats; rat, in vivo, po): 3.2-7.1 | Toxicity (human): Low-toxicity

CC1CCCC(O)C1 (stereo not drawn) [3-methylcyclohexanol]
boiling points [2]: 174 ° | potency compared with cyclohexanol ([5]; inhalation): even more potent than cyclohexanol | potency as inhibitor in mice [5]: among the most potent inhibitors
